Source: patent US20190030009A1, “COMPOUNDS AND COMPOSITIONS FOR THE TREATMENT OF CRYPTOSPORIDIOSIS” (Novartis AG, priority 2016, published 2019)

What was measured:
C. parvum PI(4)K = C. parvum PI(4)K (Cryptosporidium parvum, UniProt Q5CVD3); experiment: CpPI(4)K enzymatic assay (Transcreener ADP2 FP); assay type: biochemical
Description: The full-length coding sequence of C. parvum PI(4)K (cgd8_4500, 1114 amino acids) was codon-optimized for baculovirus expression, synthesized and cloned into pFastBac-HTb (Invitrogen 10584-027) in frame with the amino-terminal polyhistidine tag using the BamHI and Hindlll restriction sites. Recombinant pFastBacHTb-CpPI(4)K bacmid clones were generated by site-specific transposition in E. coli DH10Bac (Invitrogen 10361-012). The bacmid sequence was confirmed by direct DNA sequencing to confirm a lack of mutations across the whole gene. The subsequent steps for bacmid isolation, transfection and selection of the recombinant viruses were performed according to the manufacturer's protocol (Bac-to-Bac system #10359, Invitrogen).
SF9 cells, cultured in SF-900 III serum-free medium, were transfected with recombinant baculovirus at 1/200 (v/v) and incubated at 27° C. for 72 h. The pellets were collected after centrifugation and re-suspended in cell lysis buffer (20 mM Tris-HCl, pH 7.5, 300 mM NaCl, 1 mM DTT, 20 mM imidazole, 0.01% Triton X-100 and 1× complete protease inhibitor cocktail without EDTA (Roche Diagnostics 04693116001)). The cell suspension was lysed by sonication and the clarified supernatant was loaded onto a 1 ml HisTrap affinity column (GE Healthcare) pre-equilibrated with buffer A (20 mM Tris-HCl, pH 7.5, 300 mM NaCl, 1 mM DTT, 20 mM Imidazole, and 1× complete protease inhibitor cocktail without EDTA). The column was washed with buffer B (buffer A containing 45 mM imidazole) and the bound protein of interest was eluted with buffer C (buffer A with 90 mM imidazole). The fractions containing CpPI(4)K were pooled, concentrated using Amicon Ultra-15 and purified by a gel-filtration column (Hi-Load 26/60 Superdex 200, GE Healthcare) equilibrated with 20 mM Tris, pH 7.5, 300 mM NaCl, 1 mM DTT and 1× protease inhibitor cocktail without EDTA. The concentrations of the purified protein (Mw 132.39 kda) was determined by using the protein molar extinction coefficient (ε280 nm=133,810 M^−1 cm^−1). Aliquots were flash frozen in liquid nitrogen and immediately stored at −80° C.
The CpPI(4)K enzymatic assay was performed as described earlier with a some modifications (McNamara et al., 2013). Briefly, L-α-phosphatidylinositol (Avanti Polar Lipid 840046), dissolved in 3% n-octylglucoside (Roche Diagnostics 10634425001), was used as the lipid substrate for the PI(4)K activity assay. CpPI(4)K was assayed using Transcreener ADP2 FP detection kit (BellBrook 3010) in a black, solid 384-well plate (Corning 3575). The final assay volume was 10 μl and contained 3 nM of the respective CpPI(4)K construct in 10 mM Tris, pH 7.5, 1 mM DTT, 3 μM ATP, 5 mM Mn2+, 0.05% Triton X-100 and 10 μM phosphatidylinositol/octylglucoside. The enzyme reaction was performed for 50 minutes at room temperature and was stopped by adding 10 μl of detection mix containing 1× stop buffer (50 mM HEPES, pH7.5, 400 mM NaCl, 20 mM EDTA, and 0.02% Brij-35), 2 nM AMP Alexa Fluor 633 tracer, and 20 μg ml^−1 ADP antibody. Fluorescence polarization measurements were performed on the Infinite M1000 plate reader (Tecan) with λex=635 nm and λem=680 nm (20-nm bandwidth). IC50 values were calculated using Graphpad Prism software.
The inhibitory concentration (IC50) of selected compounds on the C. parvPI(4)K activity is provided in the third column [Cp_PI4K_enz IC50 (μM)] of Table II.

Cryptosporidium parvum = experiment: Cytopathic effect (CPE) based assay, C. parvum infected HCT-8 cells; conditions: HCT-8 host cell viability (CellTiter-Glo), 48 hours treatment, read-out: Cp CPE EC50
Method in brief: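 HCT-8 cells were batch-infected with excysted C. parvum (Iowa isolate) oocysts at MOI 1:2 (host:parasite) for 3 h at 37 °C, then seeded and incubated 24 h before compound addition. Compounds were given as 3-fold dilution series (final DMSO <0.5%). Host-cell loss (cytopathic effect) was read as viability with CellTiter-Glo.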

[1] = Cytotoxicity against HepG2; assay type: cell-based; conditions: human, HepG2 cells (ATCC HB-8065), 5 days exposure
Method in brief: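 Cells seeded at 10^5 per well, held 24 h at 37 °C, then exposed to two-fold serial dilutions of compound for 5 days. Viability read with Cell Proliferation Kit II (XTT); values reported as CC50.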

C. parvum = experiment: High content imaging assay, C. parvum infected HCT-8 cells; assay type: cell-based; conditions: Cryptosporidium parvum, percentage of infected HCT-8 cells, 48 hours treatment, read-out: Cp HCl IC50
Procedure: (§1) Human ileocecal colorectal adenocarcinoma cells (HCT-8 [HRT-18] ATCC, CCL-34) were maintained in T-175 flasks (Corning, 431080) in complete growth medium (RPMI-1640 medium (Gibco, 11875) supplemented with 10% heat-inactivated horse serum (Gibco, 26050), 1×MEM non-essential amino acids (Gibco, 11140), 10 mM HEPES (Gibco, 15630), 100 units/mL penicillin, and 100 units/mL streptomycin) at 37° C. and 5% CO2 in a humidified incubator. Cultures were passaged twice weekly using 10 mL of 1×Phosphate-Buffered Saline (PBS) without Ca^2+ and Mg^2+ (Gibco, 20012) for washing and 3-5 mL per T-175 flask of TrypLE Express Enzyme (Gibco, 12604) for dissociation of adherent cells.
Cryptosporidium parvum oocysts purchased from the Sterling Laboratory, University of Arizona (Iowa isolate) were purified from infected calf feces using discontinuous sucrose and cesium chloride centrifugation gradients and stored in PBS solution containing 0.01% Tween 20, 100 units/mL penicillin and 100 units/mL gentamicin.
(§2) Excystation and infection protocols were developed following established methods with some modifications (Gut & Nelson, 1999, Upton et aL, 1995, Bessoff et aL, 2013). Briefly, oocysts were primed in 1 mL of 10 mM hydrochloric acid in 1× Hank's Balanced Salt Solution (HBSS) (Gibco, 14025) for 10 minutes with agitation at 1000 rpm, 37° C. on an Eppendorf thermomixer, then washed twice with 1 mL of room temperature non-acidic 1× HBSS by centrifugation at 13,000 rpm for 3 minutes at 25° C. Primed oocysts were further excysted at a concentration of 1×10^6 oocysts/μL in parasite infection medium consisting of a pre-warmed and pre-gassed 1:1 formulation of Leibovitz's L-15 medium (Gibco, 11415) and UltraCULTURE medium (Lonza, 12-725F) supplemented with 2 mM sodium taurocholate (Sigma, 86339-1), 10% heat-inactivated horse serum, and 200 μM L-ascorbic acid (Sigma, 95210) at 25° C. for 10 minutes. HCT-8 monolayer cells were infected with excysted cryptosporidium at a specified multiplicity of infection (MOI). All dilutions for subsequent assays were performed in parasite infection medium without sodium taurocholate. Pre-excysted oocysts were enumerated microscopically using a C-Chip disposable hemocytometer (NanoEnTek, DHC-N01).
(§3) Compound powders were dissolved in neat DMSO (Fisher, D4121) to 10 mM and stored at 4° C. prior to dilution into source plates. Dilutions were carried out using a Microlab STAR liquid handler (Hamilton) to obtain compound source plates containing the ten-point or eight-point three fold dilutions starting from 10 mM in duplicates. Source plates were stored at 4° C. prior to spotting into assay plates. Before administration, all compound source plates were equilibrated to room temperature. A specified volume of compounds from source plate were spotted to assay plate using an Echo Acoustic liquid handler (LABCYTE, 550) so that the final DMSO concentration was less than 0.5%. Each assay plate a specified number of DMSO-treated negative control wells and a well-studied potent active compound at 100 nM as positive control. As a quality control, all positive and negative-control wells were used to calculate a Z′-value and signal to noise ratio (S:N) for each plate.
Imaging assays were developed following established Cryptosporidium spp labeling and in vitro infection models with some modifications (Bessoff et aL, 2013, Gut & Nelson, 1999). Briefly, 2×10^4 HCT-8 cells per well were seeded into 384-well, flat black clear-bottom OPERA assay plates (Greiner, 789071-G) at 20 μL per well in complete growth medium using a Multidrop Combi liquid handler (ThermoScientific, 5840300) and standard tube dispensing cassette (ThermoScientific, 24072670) and incubated for 24 hours at 37° C. The HCT-8 cells were infected with 10 μL per well of 1×10^4 excysted C. parvum oocysts (host to parasite MOI of 1:0.5) or 10 μL per well of 4×10^4 excysted C. hominis oocysts (MOI 1:2) in parasite infection medium using the Multidrop and incubated at 37° C. […]

Cryptosporidium hominis = experiment: Cytopathic effect (CPE) based assay, C. hominis infected HCT-8 cells; conditions: HCT-8 host cell viability (CellTiter-Glo), 48 hours treatment, read-out: Ch CPE EC50
Procedure: as §1
Cryptosporidium hominis oocysts were purchased from the Tufts University Cummings School of Veterinary Medicine (courtesy of Dr. Saul Tzipori). C. hominis oocysts were purified from infected gnotobiotic piglet feces and stored in PBS solution containing 0.01% Tween-20, 100 units/mL penicillin and 100 units/mL gentamicin. C. parvum and C. hominis oocysts less than three months old from the date of shedding were used in infection experiments.
as §2, §3
Cryptosporidium spp are obligate-intracellular parasites that infect intestinal epithelial cells and the host cell is killed upon parasite egress. […] The loss of epithelial cells is due to both rapid parasite invasion/multiplication/egress and also pro-inflammatory immune response (Adams et al., 1994, Griffiths et al., 1994). We have observed a consistent cytopathic effect (CPE) in HCT-8 cells with C. spp infection the loss of viability of the host cells using CellTiter-Glo reagent.
Confluent HCT-8 cells in T-175 flasks were directly infected with excysted oocysts at an MOI (host to parasite) of 1:2 for C. parvum and 1:4 for C. hominis. […]

Sequence of C. parvum PI(4)K (Q5CVD3 entry or part of it): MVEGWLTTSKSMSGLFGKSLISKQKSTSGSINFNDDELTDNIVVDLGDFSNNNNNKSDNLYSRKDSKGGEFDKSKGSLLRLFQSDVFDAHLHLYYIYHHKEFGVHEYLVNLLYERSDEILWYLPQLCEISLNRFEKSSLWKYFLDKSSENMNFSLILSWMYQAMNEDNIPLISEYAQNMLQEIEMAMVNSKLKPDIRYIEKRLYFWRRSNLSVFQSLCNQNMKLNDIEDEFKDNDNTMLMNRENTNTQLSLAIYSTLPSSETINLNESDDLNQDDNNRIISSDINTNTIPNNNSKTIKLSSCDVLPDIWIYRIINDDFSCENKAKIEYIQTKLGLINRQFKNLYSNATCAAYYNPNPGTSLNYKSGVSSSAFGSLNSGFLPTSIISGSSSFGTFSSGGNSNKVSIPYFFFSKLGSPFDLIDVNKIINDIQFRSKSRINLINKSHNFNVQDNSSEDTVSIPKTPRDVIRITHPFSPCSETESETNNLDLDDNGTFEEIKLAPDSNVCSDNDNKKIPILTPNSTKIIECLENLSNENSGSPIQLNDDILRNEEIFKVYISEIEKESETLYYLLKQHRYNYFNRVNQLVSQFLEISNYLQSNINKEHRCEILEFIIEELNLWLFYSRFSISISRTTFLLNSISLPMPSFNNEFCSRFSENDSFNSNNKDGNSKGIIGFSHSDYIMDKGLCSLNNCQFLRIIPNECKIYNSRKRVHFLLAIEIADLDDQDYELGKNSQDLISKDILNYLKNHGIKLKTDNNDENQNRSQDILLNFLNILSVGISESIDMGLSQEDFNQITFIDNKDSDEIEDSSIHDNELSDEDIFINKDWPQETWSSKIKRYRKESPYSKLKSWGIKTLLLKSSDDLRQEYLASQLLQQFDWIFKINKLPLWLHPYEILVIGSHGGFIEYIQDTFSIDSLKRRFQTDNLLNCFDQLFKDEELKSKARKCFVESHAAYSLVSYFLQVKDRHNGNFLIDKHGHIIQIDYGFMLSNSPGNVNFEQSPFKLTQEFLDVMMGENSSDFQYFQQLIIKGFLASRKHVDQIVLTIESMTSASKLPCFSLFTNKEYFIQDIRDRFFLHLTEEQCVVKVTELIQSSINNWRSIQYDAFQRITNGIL

Q: What does the source list for `CC(C)[C@H](N)C(=O)Nc1ccc(-c2cnn3ccc(C(=O)N(C)c4ccc(C#N)cc4)cc23)cc1` [Example 45]?
A: IC50 (C. parvum PI(4)K): 239 nM; EC50 (Cryptosporidium parvum): 332 nM

Q: Which CC50 at 5 days [1] does the source give for `CN(C(=O)c1ccn2ncc(-c3ccc(C(N)=O)cc3)c2c1)c1ccc(C#N)cn1` [Example 32] here?
A: 15800 nM

Q: And the IC50 (C. parvum)?
A: 58 nM

Q: And the EC50 (Cryptosporidium hominis)?
A: 119 nM

Q: And the EC50 (Cryptosporidium parvum)?
A: 93 nM

Q: What does the source list for `CN(C(=O)c1ccn2ncc(-c3ccc(C(N)=O)cn3)c2c1)c1ccc(C#N)cc1` [Example 27]?
A: IC50 (C. parvum PI(4)K): 140 nM; EC50 (Cryptosporidium parvum): 815 nM

Q: For `CN(C(=O)c1ccn2ncc(-c3ccc(C(N)=O)cc3)c2c1)c1ccc(C#N)cc1` [Example 19], which CC50 at 5 days [1] is on record?
A: 5910 nM

Q: And the IC50 (C. parvum PI(4)K)?
A: 3 nM

Q: And the EC50 (Cryptosporidium parvum)?
A: 37 nM

Q: For `CN(C(=O)c1ccn2ncc(-c3cnc4[nH]ccc4c3)c2c1)c1ccc(C#N)cn1` [Example 53], which IC50 (C. parvum PI(4)K) is on record?
A: 47 nM

Q: What about the EC50 (Cryptosporidium parvum) of the same molecule?
A: 550 nM

Q: Which results are given for `CNC(=O)c1ccc(-c2cnn3ccc(C(=O)N(C)c4ccc(C#N)cc4)cc23)cn1` [Example 97]?
A: CC50 at 5 days [1]: 31100 nM; IC50 (C. parvum PI(4)K): 73 nM; EC50 (Cryptosporidium parvum): 241 nM

Q: With `CN(C(=O)c1ccn2ncc(-c3ccc(N)nc3)c2c1)c1ccc(C#N)cn1` [Example 54] as the molecule, how does the CC50 at 5 days [1] read?
A: > 50000 nM

Q: What about the IC50 (C. parvum PI(4)K) of the same molecule?
A: 74 nM

Q: And the EC50 (Cryptosporidium parvum)?
A: 324 nM

Q: With `CC(Cn1cccn1)N(C(=O)c1ccn2ncc(-c3ccc(C(N)=O)cc3)c2c1)c1ccc(C#N)cn1` (stereo not shown) [Example 77] as the molecule, how does the CC50 at 5 days [1] read?
A: 29300 nM

Q: And the IC50 (C. parvum PI(4)K)?
A: 50 nM

Q: And the EC50 (Cryptosporidium parvum)?
A: 582 nM

Q: Which CC50 at 5 days [1] does the source give for `CNC(=O)c1ccc(-c2cnn3ccc(C(=O)N(CC4CC4)c4ccc(C#N)cn4)cc23)cc1` [Example 117] here?
A: 4330 nM

Q: And the IC50 (C. parvum PI(4)K)?
A: 7 nM

Q: And the EC50 (Cryptosporidium parvum)?
A: 505 nM

Q: Which CC50 at 5 days [1] does the source give for `CNC(=O)c1ccc(-c2cnn3ccc(C(=O)N(c4ccc(C#N)cn4)C4CCCC4)cc23)cc1` [Example 126] here?
A: 22100 nM

Q: And the IC50 (C. parvum PI(4)K)?
A: 71 nM

Q: And the EC50 (Cryptosporidium parvum)?
A: 410 nM

Q: Which CC50 at 5 days [1] does the source give for `CNC(=O)c1ccc(-c2cnn3ccc(C(=O)N(C)c4ccc(C(F)(F)F)cc4)cc23)cc1` [Example 103] here?
A: 8060 nM

Q: What about the IC50 (C. parvum) of the same molecule?
A: 8 nM

Q: What about the EC50 (Cryptosporidium parvum) of the same molecule?
A: 7 nM

Q: What does the source list for `CNC(=O)c1ccc(-c2cnn3ccc(C(=O)N(c4ccc(C#N)cn4)C(C)(C)C)cc23)cc1` [Example 119]?
A: CC50 at 5 days [1]: 20100 nM; EC50 (Cryptosporidium hominis): 1940 nM; EC50 (Cryptosporidium parvum): 1930 nM
